From article PMC10885153, “Membrane Permeability in a Large Macrocyclic Peptide Driven by a Saddle-Shaped Conformation” (Journal of the American Chemical Society, 2024) come the findings set out here.

The conditions of data set [1]: PAMPA, 10 µM, pH 7.4.
Protocol: (§1) Passive permeabilities of the 36 compounds were measured in multiplex as mixtures of six compounds each using the parallel artificial membrane permeability assay (PAMPA).[44]−[46]
(§2) Protocol is identical for both mixture and pure compound analysis.
(§3) Two of the following: Carbamazepine (CBZ), propranolol (Prop), and 1NMe35 were
(§4) included as internal standards and prepared as DMSO stocks at a concentration of 2 000 µM.
(§5) assay was carried out with a 96-well donor plate with 0.45 μ hydrophobic Immobilon-P membrane supports
(§6) (Millipore MAIPNTR10) and a 96-well Teflon acceptor plate (Millipore MSSACCEPTOR).
protocol then proceeded as follows:
(§7) Donor well solutions were prepared to a volume of 1 000 µL with the analytes as a solution in 1X
(§8) PBS pH 7.4 and 5% DMSO. To a 3 mL Eppendorf tube was added 950 µL of 1X PBS pH 7.4, 40
(§9) The solutions were vortexed and set aside.
Analyte – 10 µM per compound
(§10) A 1% solution of soy lecithin in dodecane was freshly prepared in a 3 mL Eppendorf tube and
(§11) sonicated (5 min) to ensure full dissolution of the lecithin. The donor membrane plate was turned
(§12) upside down and bottom of the membranes exposed. 5 µL of the 1% soy lecithin solution in
(§13) dodecane was then placed on the bottom of the membrane, allowing the drop to spread across the
(§14) full area of the membrane. Any membranes with visible damage were not used in the assay.
(§15) membranes were allowed to equilibrate for 5 min before loading.
(§16) Each well within the Teflon block acceptor plate that was to be used in the assay was then loaded
(§17) with 300 µL of 1X PBS pH 7.4 and 5% DMSO.
(§18) Working without break, 150 µL of each donor well solution was transferred from the to the 96-well
(§19) donor plate. Each mixture of interest was r un in quadruplicate, using a new well for each replicate.
(§20) As soon as the 96-well donor plate was finished being loaded, it was gently placed into the 96-well
(§21) Teflon acceptor plate, taking care not to trap any air bubbles beneath the membrane.
(§22) The donor/acceptor plates were covered gently with the lid to minimize evaporation and transferred
(§23) gently as a system to a sealed chamber and left to sit overnight at room temperature. The chamber
(§24) was kept from drying by placing a wet paper towel within to prevent evaporation.
(§25) After ~19-20 hours the donor plate was removed from the acceptor plate.
(§26) 50 µL of each well (donor and acceptor) were transferred to a 96 -well plate and diluted with 50 µL
(§27) of methanol prior to heat sealing and quantification by UPLC -MS.
The nature of data set [2]: in vitro. The conditions noted are these: PAMPA, pH 7.4, Pe_avg.
Protocol: as §1, §2, §3, §4, §5, §6
protocol then proceeded as follows:
as §7, §8, §9
Analyte – 10 µM per compound
as §10, §11, §12, §13, §14, §15, §16, §17, §18, §19, §20, §21, §22, §23, §24, §25, §26, §27

Each structure is given as a SMILES string. Positions of bridges follow the written chain, without caps; N, C: chain ends. Non-standard residues stand in square brackets, D forms with d. Residues, ends and D or L forms follow the SMILES beside them. Cha = N[C@@H](CC1CCCCC1)C(=O)O; NMeNva = CCC[C@H](NC)C(=O)O; NMeAbu = CC[C@H](NC)C(=O)O; NMeC = CN[C@@H](CS)C(=O)O; NMeA = CN[C@@H](C)C(=O)O; Nva = CCC[C@H](N)C(=O)O; Abu = CC[C@H](N)C(=O)O; NPrGly = CCCNCC(=O)O; NEtG = CCNCC(=O)O

On to `CCCN1CC(=O)N[C@@H](CC(C)C)C(=O)N(C)[C@@H](C)C(=O)N[C@@H](CC(C)C)C(=O)N(C)[C@H](C(=O)OCC)CSCC(=O)N[C@@H](CC(C)C)C(=O)N(C)[C@@H](C)C(=O)N[C@@H](CC(C)C)C(=O)N2CCC[C@@H]2C1=O` [LA08, O=C(N(C)[C@H](C(OCC)=O)CSCC(N[C@H](C(N(C)[C@@H](C)C(N[C@@H](CC(C)C)C(N1[C@H](CCC1)C(N(CCC)CC(N[C@H]2CC(C)C)=O)=O)=O)=O)=O)CC(C)C)=O)[C@H](CC(C)C)NC([C@H](C)N(C)C2=O)=O] ({CH2CO}-L[NMeA]L[dP][NPrGly]L[NMeA]L[NMeC]-OEt; thioether N-9), for which, in data set [1], the “%R_avg” value worked out at 4.8% and the “log(Pe)_avg” value is listed as -6.100. The same molecule displayed an apparent permeability coefficient (Papp) at 10 µM in data set [2] of 0.794 ×10⁻⁶ cm/s.
Regarding `CCC[C@@H]1NC(=O)CN(CC)C(=O)[C@H](CC(C)C)NC(=O)CSC[C@@H](C(=O)OCC)N(C)C(=O)[C@H](CC(C)C)NC(=O)[C@H](C)N(C)C(=O)[C@H](CC(C)C)NC(=O)[C@H](C)N(C)C(=O)[C@H]2CCCN2C1=O` [LB05, O=C(N(C)[C@H](C(OCC)=O)CSCC(N[C@H](C1=O)CC(C)C)=O)[C@H](CC(C)C)NC([C@H](C)N(C)C([C@H](CC(C)C)NC([C@H](C)N(C)C([C@@H]2N(C([C@H](CCC)NC(CN1CC)=O)=O)CCC2)=O)=O)=O)=O] ({CH2CO}-L[NEtG][Nva][dP][NMeA]L[NMeA]L[NMeC]-OEt; thioether N-9), the “%R_avg” value in data set [1] worked out at 50.3%. Moreover, the apparent permeability coefficient (Papp) at 10 µM in data set [2] is 2.57 ×10⁻⁶ cm/s.
Turning to `CCCN1CC(=O)N[C@@H](CC(C)C)C(=O)N2CCC[C@@H]2C(=O)N(C)[C@@H](C)C(=O)N[C@@H](CC(C)C)C(=O)N(C)[C@@H](C)C(=O)N[C@@H](CC(C)C)C(=O)N(C)[C@H](C(=O)OCC)CSCC(=O)N[C@@H](CC(C)C)C1=O` [LB08, O=C(N(C)[C@H](C(OCC)=O)CSCC(N[C@H](C1=O)CC(C)C)=O)[C@H](CC(C)C)NC([C@H](C)N(C)C([C@H](CC(C)C)NC([C@H](C)N(C)C([C@@H]2N(C([C@H](CC(C)C)NC(CN1CCC)=O)=O)CCC2)=O)=O)=O)=O] ({CH2CO}-L[NPrGly]L[dP][NMeA]L[NMeA]L[NMeC]-OEt; thioether N-9), the “%R_avg” value in data set [1] was 13.3%. The molecule also showed an apparent permeability (Papp) at 10 µM in data set [2] of 2.29 ×10⁻⁶ cm/s.
`CCC[C@@H]1NC(=O)[C@H](C)N(C)C(=O)[C@H](CC(C)C)NC(=O)CSC[C@@H](C(=O)OCC)N(C)C(=O)[C@H](CC(C)C)NC(=O)[C@H](C)N(C)C(=O)[C@H](CC)NC(=O)[C@H](CCC)N(C)C(=O)[C@H]2CCCN2C1=O` [LC03, O=C(N(C)[C@H](C(OCC)=O)CSCC(N[C@H](C(N(C)[C@@H](C)C(N[C@@H](CCC)C(N1[C@H](CCC1)C(N(C)[C@@H](CCC)C(N[C@H]2CC)=O)=O)=O)=O)=O)CC(C)C)=O)[C@H](CC(C)C)NC([C@H](C)N(C)C2=O)=O] ({CH2CO}-L[NMeA][Nva][dP][NMeNva][Abu][NMeA]L[NMeC]-OEt; thioether N-9): the “%R_avg” value in data set [1] came to 20.3%.
Still for that read-out and setting: with `CCC[C@@H]1NC(=O)[C@H](C)N(C)C(=O)[C@H](CC(C)C)NC(=O)CSC[C@@H](C(=O)OCC)N(C)C(=O)[C@H](CC(C)C)NC(=O)[C@H](C)N(C)C(=O)[C@H](CC(C)C)NC(=O)[C@H](CC)N(C)C(=O)[C@H]2CCCN2C1=O` [LC05, O=C(N(C)[C@H](C(OCC)=O)CSCC(N[C@H](C(N(C)[C@@H](C)C(N[C@@H](CCC)C(N1[C@H](CCC1)C(N(C)[C@@H](CC)C(N[C@H]2CC(C)C)=O)=O)=O)=O)=O)CC(C)C)=O)[C@H](CC(C)C)NC([C@H](C)N(C)C2=O)=O] ({CH2CO}-L[NMeA][Nva][dP][NMeAbu]L[NMeA]L[NMeC]-OEt; thioether N-9) the figure was 7.6%; with `CCOC(=O)[C@@H]1CSCC(=O)N[C@@H](CC(C)C)C(=O)N(C)[C@@H](C)C(=O)N[C@@H](CC(C)C)C(=O)N2CCC[C@@H]2C(=O)N(C)[C@@H](CC)C(=O)N[C@@H](CC(C)C)C(=O)N(C)[C@@H](C)C(=O)N[C@@H](CC(C)C)C(=O)N1C` [LC06, O=C(N(C)[C@H](C(OCC)=O)CSCC(N[C@H](C(N(C)[C@@H](C)C(N[C@@H](CC(C)C)C(N1[C@H](CCC1)C(N(C)[C@@H](CC)C(N[C@H]2CC(C)C)=O)=O)=O)=O)=O)CC(C)C)=O)[C@H](CC(C)C)NC([C@H](C)N(C)C2=O)=O] ({CH2CO}-L[NMeA]L[dP][NMeAbu]L[NMeA]L[NMeC]-OEt; thioether N-9), 4.6%.
Same read-out and setting: with `CCC[C@H]1C(=O)N[C@@H](CC(C)C)C(=O)N(C)[C@@H](C)C(=O)N[C@@H](CC(C)C)C(=O)N(C)[C@H](C(=O)OCC)CSCC(=O)N[C@@H](CC(C)C)C(=O)N(C)[C@@H](C)C(=O)N[C@@H](CC(C)C)C(=O)N2CCC[C@@H]2C(=O)N1C` [LC08, O=C(N(C)[C@H](C(OCC)=O)CSCC(N[C@H](C(N(C)[C@@H](C)C(N[C@@H](CC(C)C)C(N1[C@H](CCC1)C(N(C)[C@@H](CCC)C(N[C@H]2CC(C)C)=O)=O)=O)=O)=O)CC(C)C)=O)[C@H](CC(C)C)NC([C@H](C)N(C)C2=O)=O] ({CH2CO}-L[NMeA]L[dP][NMeNva]L[NMeA]L[NMeC]-OEt; thioether N-9) the figure was 4.6%.
The same measure, in the same setting: with `CCOC(=O)[C@@H]1CSCC(=O)N[C@@H](CC(C)C)C(=O)N(C)[C@@H](C)C(=O)N[C@@H](CC(C)C)C(=O)N2CCC[C@@H]2C(=O)N(C)[C@@H](CC)C(=O)N[C@@H](CC2CCCCC2)C(=O)N(C)[C@@H](C)C(=O)N[C@@H](CC(C)C)C(=O)N1C` [LC10, O=C(N(C)[C@H](C(OCC)=O)CSCC(N[C@H](C(N(C)[C@@H](C)C(N[C@@H](CC(C)C)C(N1[C@H](CCC1)C(N(C)[C@@H](CC)C(N[C@H]2CC3CCCCC3)=O)=O)=O)=O)=O)CC(C)C)=O)[C@H](CC(C)C)NC([C@H](C)N(C)C2=O)=O] ({CH2CO}-L[NMeA]L[dP][NMeAbu][Cha][NMeA]L[NMeC]-OEt; thioether N-9) the figure was 10.5%; with `CCC[C@@H]1NC(=O)[C@H](C)N(C)C(=O)[C@H](CC(C)C)NC(=O)CSC[C@@H](C(=O)OCC)N(C)C(=O)[C@H](CC(C)C)NC(=O)[C@H](C)N(C)C(=O)[C@H](CC2CCCCC2)NC(=O)[C@H](CCC)N(C)C(=O)[C@H]2CCCN2C1=O` [LC11, O=C(N(C)[C@H](C(OCC)=O)CSCC(N[C@H](C(N(C)[C@@H](C)C(N[C@@H](CCC)C(N1[C@H](CCC1)C(N(C)[C@@H](CCC)C(N[C@H]2CC3CCCCC3)=O)=O)=O)=O)=O)CC(C)C)=O)[C@H](CC(C)C)NC([C@H](C)N(C)C2=O)=O] ({CH2CO}-L[NMeA][Nva][dP][NMeNva][Cha][NMeA]L[NMeC]-OEt; thioether N-9), 7.4%.
Take `CCC[C@H]1C(=O)N[C@@H](CC2CCCCC2)C(=O)N(C)[C@@H](C)C(=O)N[C@@H](CC(C)C)C(=O)N(C)[C@H](C(=O)OCC)CSCC(=O)N[C@@H](CC(C)C)C(=O)N(C)[C@@H](C)C(=O)N[C@@H](CC(C)C)C(=O)N2CCC[C@@H]2C(=O)N1C` [LC12, O=C(N(C)[C@H](C(OCC)=O)CSCC(N[C@H](C(N(C)[C@@H](C)C(N[C@@H](CC(C)C)C(N1[C@H](CCC1)C(N(C)[C@@H](CCC)C(N[C@H]2CC3CCCCC3)=O)=O)=O)=O)=O)CC(C)C)=O)[C@H](CC(C)C)NC([C@H](C)N(C)C2=O)=O] ({CH2CO}-L[NMeA]L[dP][NMeNva][Cha][NMeA]L[NMeC]-OEt; thioether N-9): in data set [1], the “%R_avg” value is on record as 12.7% and the Pe_avg was determined as 0 cm/s.
